Data on 24 compounds can be found in patent publication US8304577B2, “Modulators of G protein-coupled receptor 88” (Bristol-Myers Squibb Company, priority 2009, dated 2012).

What is called EC50 is the concentration at which the effect is half-maximal.

In one assay the target is G protein-coupled receptor 88 (GPR88) (Homo sapiens, UniProt Q9GZN0). In words: GPR88 functional assay: EC50 of Table 2 (GTPγS assay and cAMP HTRF assay described; table does not say which). It counts as cell-based. The conditions noted are these: class symbol; read-out: Range (EC50). How it is done: 96 well GTPγS assay plates were purchased from Perkin Elmer. Wheat Germ Agglutinin PVT SPA beads and ^35S-GTPγS were purchased from Amersham GDP, GTPγS and all buffer reagents were from Sigma. 384 well white NBS plates were purchased from corning. Pertussis toxin was purchased from Calbiochem. All cell culture reagents were purchased from Invitrogen. Forskolin was purchased from Sigma. The cAMP HTRF kit was purchased fron Cisbio International.
G protein-coupled receptor 88 (GPR88), sequence (Q9GZN0 whole entry, species assumed): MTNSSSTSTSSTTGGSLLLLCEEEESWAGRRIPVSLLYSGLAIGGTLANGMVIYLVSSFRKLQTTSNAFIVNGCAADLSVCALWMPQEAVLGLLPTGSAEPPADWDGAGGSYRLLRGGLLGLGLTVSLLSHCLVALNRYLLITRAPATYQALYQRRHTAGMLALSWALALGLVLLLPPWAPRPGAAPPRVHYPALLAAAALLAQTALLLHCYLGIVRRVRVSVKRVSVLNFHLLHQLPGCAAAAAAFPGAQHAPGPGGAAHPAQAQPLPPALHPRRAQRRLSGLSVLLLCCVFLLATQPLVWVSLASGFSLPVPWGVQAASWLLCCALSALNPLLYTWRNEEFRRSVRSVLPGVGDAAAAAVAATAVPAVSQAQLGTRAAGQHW
The GTPγS assay buffer consisted of 10 mM MgCl2, 180 mM NaCl, 200 uM GDP, 0.167 mg/mL DTT, 1 mM EGTA and 20 mM HEPES pH7.4. This buffer was used for dilution of membranes, beads, and ^35S GTPγS components. To each well of the 96 well assay plate 48 ul assay buffer, 2 ul of 100× compound, 50 ul membrane solution (0.2 ug/ul), 50 ul ^35S GTPγS solution (0.8 nM) and 50 ul of SPA beads (10 mg/mL). Non-specific binding was determined by the addition of cold GTPγS to control wells. The plates were sealed with clear sealing tape and incubated at room temperature for 1 hour. GTPγS activity was detected using a Wallac Micro-Beta Trilux liquid scintillation counter. Non-specific binding was determined using 10 uM cold GTPγS.
The cAMP HTRF assay is modified from the Cisbio International kit procedure 62AM4PEJ. Assay plates were prepared by stamping 0.1 ul of 100× compound stock solutions diluted in DMSO or DMSO alone into 384 well NBS plates. The cAMP HTRF assay was performed using cells in suspension. The cAMP HTRF assay buffer consisted of Hank's Balanced Salt Solution (HBSS), 2 mM CaCl2, 5 mM MgCl2, 20 mM HEPES and 1 mM 3-isobutyl-1-methylxanthine (IBMX) (added fresh at the time of assay). For pertussis toxin treatment pertussis toxin (100 ng/mL) was added to culture medium for 16 hours prior to assay. Confluent cells were disrupted with cell dissociation buffer count cells then centrifuged at 1000×g for 5 minutes. The cell pellet was resuspended in assay buffer alone for basal cAMP measurements or with 0.75 uM forskolin (added immediately prior to addition to wells) for addition to all other wells. Using a Multidrop 384 (Lab systems) 10 ul of cell suspension was added to each well containing compound or DMSO. The plates were incubated at room temperature for 30 minutes covered. During this time the cAMP standard curve was prepared as per manufacturer's instruction. At the end of the incubation 10 ul of anti-cAMP cryptate and 10 ul cAMP-XL, diluted in manufacturer's lysis buffer, were added to each well. The plated were incubated at room temperature for 60 minutes covered then read on an Envision plate reader (Perkin Elmer) and the 665 nm/620 nm fluorescence ratio determined Fluorescence ratio values were converted to molar cAMP concentrations from the standard curve using the GraphPad Prism program.
For orientation: In TR-FRET formats the signal depends on donor and acceptor labels being close together.
Take `CCCC(C)COc1ccc(C(CN2CCN(C)CC2)NC(=O)[C@@H](C)c2ccccc2)cc1` (mixture of isomers) [Example 36, (2S)-N-(1-(4-(2-Methylpentyloxy)phenyl)-2-(4-methylpiperazin-1-yl)ethyl)-2-phenylpropanamide]: the EC50 is 100 to 200 nM.
Take `CCCC(C)COc1ccc([C@H](CNCc2cccnc2)NC(=O)[C@@H](C)c2ccccc2)cc1` (stereo partly drawn) [Example 13, (2S)-N-((1R)-1-(4-(2-Methylpentyloxy)phenyl)-2-(pyridin-3-ylmethylamino)ethyl)-2-phenylpropanamide]: the concentration for a half-maximal effect (EC50) was 100 to 200 nM.
On to `CCCC(C)COc1ccc([C@H](CNC(=O)[C@@H](N)[C@@H](C)OC)NC(=O)[C@@H](C)c2ccccc2)cc1` (stereo partly drawn) [Example 32, (2S,3R)-2-Amino-3-methoxy-N-((2R)-2-(4-(2-methylpentyloxy)phenyl)-2-((S)-2-phenylpropanamido)ethyl)butanamide], for which the EC50 lay in the range of 100 to 200 nM.
In the case of `CCCC(C)COc1ccc([C@H](CNCC2(N)CCCC2)NC(=O)[C@@H](C)c2ccccc2)cc1` (stereo partly drawn) [Example 15, (2S)-N-((1R)-2-((1-Aminocyclopentyl)methylamino)-1-(4-(2-methylpentyloxy)phenyl)ethyl)-2-phenylpropanamide], the EC50 lay within 39 to 99 nM.
Still for that read-out and setting: in the case of `CC[C@H](C)COc1ccc([C@@H](NC(=O)[C@@H](C)c2ccccc2)[C@@H](C)O)cc1` [Example 39, (S)-N-{(1R,2R)-2-Hydroxy-1-[4-((S)-2-methyl-butoxy)-phenyl]-propyl}-2-phenylpropionamide] it was 100 to 200 nM; in that of `CCCC(C)COc1ccc([C@H](CNC(=O)[C@@H](N)CC)NC(=O)[C@@H](C)c2ccccc2)cc1` (stereo partly drawn) [Example 25, (2S)-2-Amino-N-((2R)-2-(4-(2-methylpentyloxy)phenyl)-2-((S)-2-phenylpropanamido)ethyl)butanamide], 39 to 99 nM; in that of `CCCC(C)COc1ccc([C@H](CNC(=O)[C@H](C)N)NC(=O)[C@@H](C)c2ccccc2)cc1` (stereo partly drawn) [Example 23, (2S)-2-Amino-N-((2R)-2-(4-(2-methylpentyloxy)phenyl)-2-((S)-2-phenylpropanamido)ethyl)propanamide], 39 to 99 nM.
Still for that read-out and setting: to `CCCC(C)COc1ccc([C@H](CNC[C@H](C)N)NC(=O)[C@@H](C)c2ccccc2)cc1` (stereo partly drawn) [Example 17, (2S)-N-((1R)-2-((S)-2-Aminopropylamino)-1-(4-(2-methylpentyloxy)phenyl)ethyl)-2-phenylpropanamide] belongs 100 to 200 nM; to `CCCC(C)COc1ccc([C@H](CNC(=O)[C@H](N)[C@H](C)CC)NC(=O)[C@@H](C)c2ccccc2)cc1` (stereo partly drawn) [Example 22, (2R,3R)-2-Amino-3-methyl-N-((2R)-2-(4-(2-methylpentyloxy)phenyl)-2-((S)-2-phenylpropanamido)ethyl)pentanamide], 39 to 99 nM; to `CCCC(C)COc1ccc([C@H](CNCC2CC2)NC(=O)[C@@H](C)c2ccccc2)cc1` (stereo partly drawn) [Example 7, (2S)-N-((1R)-2-(Cyclopropylmethylamino)-1-(4-(2-methylpentyloxy)phenyl)ethyl)-2-phenylpropanamide], 39 to 99 nM.
The same measure, in the same setting: in the case of `CCCC(C)COc1ccc([C@H](CO)NC(=O)[C@@H](CC)c2ccccc2)cc1` (stereo partly drawn) [Example 2, (2S)-N-((1R)-2-Hydroxy-1-(4-(2-methylpentyloxy)phenyl)ethyl)-2-phenylbutanamide] it was 100 to 200 nM; in that of `CCCC(C)COc1ccc([C@H](CNCC(C)CC)NC(=O)[C@@H](C)c2ccccc2)cc1` (stereo partly drawn) [Example 8, (2S)-N-((1R)-2-(2-Methylbutylamino)-1-(4-(2-methylpentyloxy)phenyl)ethyl)-2-phenylpropanamide], 100 to 200 nM; in that of `CCCC(C)COc1ccc([C@H](CNCc2c[nH]c3ccccc23)NC(=O)[C@@H](C)c2ccccc2)cc1` (stereo partly drawn) [Example 12, (2S)-N-((1R)-2-((1H-Indol-3-yl)methylamino)-1-(4-(2-methylpentyloxy)phenyl)ethyl)-2-phenylpropanamide], 100 to 200 nM.
With `CCCC(C)COc1ccc([C@H](CNC(=O)[C@@H](N)[C@@H](C)CC)NC(=O)[C@@H](C)c2ccccc2)cc1` (stereo partly drawn) [Example 19, (2S,3S)-2-Amino-3-methyl-N-((2R)-2-(4-(2-methylpentyloxy)phenyl)-2-((S)-2-phenylpropanamido)ethyl)pentanamide], the EC50 was in the range of 39 to 99 nM.
Same read-out and setting: in the case of `CCCC(C)COc1ccc([C@H](CO)NC(=O)[C@@H](CO)c2ccccc2)cc1` (stereo partly drawn) [Example 3, (2R)-3-Hydroxy-N-((1R)-2-hydroxy-1-(4-(2-methylpentyloxy)phenyl)ethyl)-2-phenylpropanamide] it was 100 to 200 nM; in that of `CCCC(C)COc1ccc([C@H](CNC(=O)[C@@H](N)CC2CC2)NC(=O)[C@@H](C)c2ccccc2)cc1` (stereo partly drawn) [Example 28, (2S)-2-Amino-3-cyclopropyl-N-((2R)-2-(4-(2-methylpentyloxy)phenyl)-2-((S)-2-phenylpropanamido)ethyl)propanamide], 100 to 200 nM; in that of `CCCC(C)COc1ccc([C@H](CN2CCOCC2)NC(=O)[C@@H](C)c2ccccc2)cc1` (stereo partly drawn) [Example 35, (2S)-N-((1R)-1-(4-(2-Methylpentyloxy)phenyl)-2-morpholinoethyl)-2-phenylpropanamide], 100 to 200 nM.
Same read-out and setting: to `CC[C@H](C)COc1ccc([C@H](CN)NC(=O)[C@@H](C)c2ccccc2)cc1` [Example 37, (2S)-N-((1R)-2-Amino-1-[4-((S)-2-methylbutoxy)phenyl]-ethyl)-2-phenylpropionamide] belongs 39 to 99 nM; to `CCCC(C)COc1ccc([C@H](CNC(=O)[C@H](N)C2CC2)NC(=O)[C@@H](C)c2ccccc2)cc1` (stereo partly drawn) [Example 30, (2S)-N-((1R)-2-((R)-2-Amino-2-cyclopropylacetamido)-1-(4-(2-methylpentyloxy)phenyl)ethyl)-2-phenylpropanamide], 100 to 200 nM; to `CCCC(C)COc1ccc([C@H](CNC(=O)[C@@H](N)CCC)NC(=O)[C@@H](C)c2ccccc2)cc1` (stereo partly drawn) [Example 26, (2S)-2-Amino-N-((2R)-2-(4-(2-methylpentyloxy)phenyl)-2-((S)-2-phenylpropanamido)ethyl)pentanamide], 39 to 99 nM.

Still in this assay, the particulars now being: exact value given; read-out: Range (EC50).
Consider `CCCC(C)COc1ccc([C@H](CNC[C@H]2CCCN2)NC(=O)[C@@H](C)c2ccccc2)cc1` (stereo partly drawn) [Example 18, (2S)-N-((1R)-1-(4-(2-Methylpentyloxy)phenyl)-2-((R)-pyrrolidin-2-ylmethylamino)ethyl)-2-phenylpropanamide], for which the EC50 came out at 154 nM.
As for `CCCC(C)COc1ccc([C@H](CNCc2ccccn2)NC(=O)[C@@H](C)c2ccccc2)cc1` (stereo partly drawn) [Example 10, (2S)-N-((1R)-1-(4-(2-Methylpentyloxy)phenyl)-2-(pyridin-2-ylmethylamino)ethyl)-2-phenylpropanamide], the EC50 was found to be 110 nM.
On to `CC(C)COc1ccc([C@@H](NC(=O)[C@@H](C)c2ccccc2)[C@H]2CCCN2)cc1` [Example 40, (S)-N-((R)-(4-Isobutoxyphenyl)((R)-pyrrolidin-2-yl)methyl)-2-phenylpropanamide], for which the EC50 was 254 nM.
For the compound `CCCC(C)COc1ccc([C@H](CNC(=O)[C@@H]2CCCN2)NC(=O)[C@@H](C)c2ccccc2)cc1` (stereo partly drawn) [Example 21, (2S)-N-((2R)-2-(4-(2-Methylpentyloxy)phenyl)-2-((S)-2-phenylpropanamido)ethyl)pyrrolidine-2-carboxamide], the 50% effective concentration (EC50) worked out at 89 nM.
